PubChem BioAssay AID256 (DTP/NCI, 2004)
Inconclusive results and toxic doses are left out. The calls were made as follows: active = survival T/C of 150% or more; inactive = T/C below 125% in these data.

System: CD2F1 mice, L1210 leukemia ip, survival T/C
Assay: NCI In Vivo Anticancer Drug Screen. Data for tumor model L1210 Leukemia (intraperitoneal) in CD2F1 (CDF1) mice
Conditions: higher = longer survival
Outline: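 Tumor-bearing mice (transplanted tumor) were split into treated and vehicle control groups, and the measured endpoint of each treated group was divided by that of its vehicle controls.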

[1] = endpoint: mean survival time, dose: 100.0 mg/kg/injection, schedule: Q01DX001 (ip), vehicle: saline
[2] = endpoint: mean survival time, dose: 200.0 mg/kg/injection, schedule: Q01DX001 (ip), vehicle: saline
[3] = endpoint: mean survival time, dose: 50.0 mg/kg/injection, schedule: Q01DX009 (ip), vehicle: saline with Tween-80
[4] = endpoint: mean survival time, dose: 100.0 mg/kg/injection, schedule: Q01DX009 (ip), vehicle: saline with Tween-80
[5] = endpoint: mean survival time, dose: 100.0 mg/kg/injection, schedule: Q04DX003 (ip), vehicle: saline with Tween-80
[6] = endpoint: mean survival time, dose: 200.0 mg/kg/injection, schedule: Q01DX009 (ip), vehicle: saline with Tween-80
[7] = endpoint: mean survival time, dose: 200.0 mg/kg/injection, schedule: Q04DX003 (ip), vehicle: saline with Tween-80
[8] = endpoint: mean survival time, dose: 100.0 mg/kg/injection, schedule: Q01DX001 (ip), vehicle: saline with Tween-80
[9] = endpoint: mean survival time, dose: 200.0 mg/kg/injection, schedule: Q01DX001 (ip), vehicle: saline with Tween-80
[10] = endpoint: mean survival time, dose: 400.0 mg/kg/injection, schedule: Q01DX001 (ip), vehicle: saline with Tween-80
[11] = endpoint: mean survival time, dose: 25.0 mg/kg/injection, schedule: Q01DX009 (ip), vehicle: saline with Tween-80
[12] = endpoint: mean survival time, dose: 400.0 mg/kg/injection, schedule: Q01DX009 (ip), vehicle: saline with Tween-80
[13] = endpoint: mean survival time, dose: 400.0 mg/kg/injection, schedule: Q04DX003 (ip), vehicle: saline with Tween-80

Measured: T/C

COc1ccc(CCNC(C)Cc2ccc(OC)c(OC)c2)cc1OC (stereo unspecified)
inactive: endpoint: mean survival time, dose: 12.5 mg/kg/injection, schedule: Q01DX009 (ip), vehicle: water 104 % of control | endpoint: mean survival time, dose: 25.0 mg/kg/injection, schedule: Q01DX009 (ip), vehicle: water 101 % of control | endpoint: mean survival time, dose: 50.0 mg/kg/injection, schedule: Q01DX009 (ip), vehicle: water 103 % of control

Oc1ccccc1Br
inactive: [1] 96 % of control | [2] 93 % of control

C[CH2][Sn]([Cl])([Cl])[Cl].Oc1ccccc1C=NCCN=Cc1ccccc1O
inactive: [3] 100 % of control | [4] 95 % of control | [5] 98 % of control | [6] 97 % of control | [7] 89 % of control

O=C(c1cccnc1)c1cc2ccccc2n1S(=O)(=O)c1ccccc1
inactive: [8] 97 % of control | [9] 97 % of control | [10] 97 % of control

C#CCCCN1CCC2(CC1)C(=O)N(C(=O)N(C)C)CN2c1ccccc1
inactive: [11] 100 % of control | [3] 96 % of control | [4] 97 % of control

CC(NCCN(C)C)C1CCC2C3CCC4CC(O)CCC4(C)C3CCC12C (stereo unspecified)
inactive: endpoint: mean survival time, dose: 12.5 mg/kg/injection, schedule: Q04DX003 (ip), vehicle: saline with Tween-80 101 % of control | endpoint: mean survival time, dose: 25.0 mg/kg/injection, schedule: Q04DX003 (ip), vehicle: saline with Tween-80 95 % of control | endpoint: mean survival time, dose: 50.0 mg/kg/injection, schedule: Q04DX003 (ip), vehicle: saline with Tween-80 101 % of control

CN=C(N)N(C)C
inactive: [1] 101 % of control | [2] 101 % of control | endpoint: mean survival time, dose: 400.0 mg/kg/injection, schedule: Q01DX001 (ip), vehicle: saline 95 % of control

CC(O)C1(O)C(O)CC(OC2c3cc4c(c(O)c3[C@@H]3C[C@@]2(C)OC32C=c3cc[nH]c3=N2)C(=O)c2cccc(O)c2C4=O)OC1C (stereo partly specified)
inactive: endpoint: median survival time, dose: 6.25 mg/kg/injection, schedule: Q01DX009 (ip), vehicle: saline with Tween-80 114 % of control | endpoint: median survival time, dose: 12.5 mg/kg/injection, schedule: Q01DX009 (ip), vehicle: saline with Tween-80 118 % of control | endpoint: median survival time, dose: 25.0 mg/kg/injection, schedule: Q01DX009 (ip), vehicle: saline with Tween-80 113 % of control | endpoint: median survival time, dose: 50.0 mg/kg/injection, schedule: Q01DX009 (ip), vehicle: saline with Tween-80 97 % of control

O=C1CSCc2c1ccc1ccccc21
inactive: [4] 98 % of control | [6] 95 % of control | [12] 96 % of control

CCC(C)C1NC(=O)C(NC(=O)c2c3nc4c(C(=O)NC5C(=O)NC(C(C)CC)C(=O)N6CCCC6C(=O)N(C)CC(=O)N(C)C(C(C)C)C(=O)OC5C)cc([N+](=O)[O-])c(C)c4oc-3c(C)c(=O)c2N)C(C)OC(=O)C(C(C)C)N(C)C(=O)CN(C)C(=O)C2CCCN2C1=O (stereo unspecified)
inactive: endpoint: mean survival time, dose: 0.05 mg/kg/injection, schedule: Q01DX009 (ip), vehicle: water 107 % of control | endpoint: mean survival time, dose: 0.1 mg/kg/injection, schedule: Q01DX009 (ip), vehicle: water 116 % of control | endpoint: mean survival time, dose: 0.2 mg/kg/injection, schedule: Q01DX009 (ip), vehicle: water 112 % of control | endpoint: mean survival time, dose: 0.4 mg/kg/injection, schedule: Q01DX009 (ip), vehicle: water 94 % of control

O=C(Nc1ccc(Cl)c(Cl)c1)Nc1c(Oc2ccc(Cl)c(Cl)c2)ccc(Cl)c1S(=O)(=O)O
inactive: endpoint: mean survival time, dose: 3.12 mg/kg/injection, schedule: Q01DX009 (ip), vehicle: saline with Tween-80 109 % of control | endpoint: mean survival time, dose: 6.25 mg/kg/injection, schedule: Q01DX009 (ip), vehicle: saline with Tween-80 109 % of control | endpoint: mean survival time, dose: 12.5 mg/kg/injection, schedule: Q01DX009 (ip), vehicle: saline with Tween-80 110 % of control | [11] 113 % of control | [3] 104 % of control | [4] 113 % of control | [5] 108 % of control | [7] 101 % of control

Cc1ccc(NC(=O)NO)cc1
inactive: endpoint: mean survival time, dose: 4.0 mg/kg/injection, schedule: Q03HX024 (ip), vehicle: saline 95 % of control | endpoint: mean survival time, dose: 8.0 mg/kg/injection, schedule: Q03HX024 (ip), vehicle: saline 93 % of control | endpoint: mean survival time, dose: 16.0 mg/kg/injection, schedule: Q03HX024 (ip), vehicle: saline 101 % of control | endpoint: mean survival time, dose: 32.0 mg/kg/injection, schedule: Q03HX024 (ip), vehicle: saline 87 % of control | endpoint: mean survival time, dose: 62.0 mg/kg/injection, schedule: Q03HX024 (ip), vehicle: saline with Tween-80 97 % of control | endpoint: mean survival time, dose: 64.0 mg/kg/injection, schedule: Q03HX024 (ip), vehicle: saline 93 % of control | endpoint: mean survival time, dose: 93.0 mg/kg/injection, schedule: Q03HX024 (ip), vehicle: saline with Tween-80 99 % of control

Nc1ncnc2c1ncn2C1OC(CCC(=O)NCCc2c[nH]c3ccccc23)C(O)C1O (stereo unspecified)
inactive: endpoint: median survival time, dose: 10.63 mg/kg/injection, schedule: Q01DX005 (ip), vehicle: distilled water + Tween-80 101 % of control | endpoint: median survival time, dose: 21.25 mg/kg/injection, schedule: Q01DX005 (ip), vehicle: distilled water + Tween-80 102 % of control | endpoint: median survival time, dose: 42.5 mg/kg/injection, schedule: Q01DX005 (ip), vehicle: distilled water + Tween-80 97 % of control | endpoint: median survival time, dose: 85.0 mg/kg/injection, schedule: Q01DX005 (ip), vehicle: distilled water + Tween-80 96 % of control | endpoint: median survival time, dose: 170.0 mg/kg/injection, schedule: Q01DX005 (ip), vehicle: distilled water + Tween-80 101 % of control

CN(C)C=Nc1ccc(C#N)cc1
inactive: endpoint: mean survival time, dose: 50.0 mg/kg/injection, schedule: Q01DX001 (ip), vehicle: saline 97 % of control | [1] 97 % of control

CC1(c2ccccc2)OCCO1
inactive: [8] 97 % of control | [4] 95 % of control | [5] 100 % of control | [9] 94 % of control | [6] 93 % of control | [7] 100 % of control | [10] 97 % of control | [12] 97 % of control | [13] 97 % of control

COC(=O)C(C(=O)OC)C(Br)(C(=O)OC)C(=O)OC
inactive: [4] 98 % of control | [5] 91 % of control | [6] 103 % of control | [7] 91 % of control | [13] 95 % of control

N#CC(C#N)=C/C=C/c1cccc([N+](=O)[O-])c1
inactive: endpoint: mean survival time, dose: 3.12 mg/kg/injection, schedule: Q01DX009 (ip), vehicle: Klucel (hydroxypropylcellulose) (HPC) 101 % of control | endpoint: mean survival time, dose: 6.25 mg/kg/injection, schedule: Q01DX009 (ip), vehicle: Klucel (hydroxypropylcellulose) (HPC) 109 % of control | endpoint: mean survival time, dose: 12.5 mg/kg/injection, schedule: Q01DX009 (ip), vehicle: Klucel (hydroxypropylcellulose) (HPC) 104 % of control

O=C1c2ccccc2C(=O)c2c(NCCN3CCCCC3)ccc(NCCN3CCCCC3)c21
inactive: endpoint: mean survival time, dose: 8.0 mg/kg/injection, schedule: Q01DX009 (ip), vehicle: acid diluted with saline 100 % of control | endpoint: mean survival time, dose: 16.0 mg/kg/injection, schedule: Q01DX009 (ip), vehicle: acid diluted with saline 102 % of control | endpoint: mean survival time, dose: 32.0 mg/kg/injection, schedule: Q01DX009 (ip), vehicle: acid diluted with saline 110 % of control | endpoint: mean survival time, dose: 64.0 mg/kg/injection, schedule: Q01DX009 (ip), vehicle: acid diluted with saline 104 % of control

O=C(OCC#CC#CCOC(=O)c1cccc2ccccc12)c1cccc2ccccc12
inactive: endpoint: mean survival time, dose: 100.0 mg/kg/injection, schedule: Q04DX003 (ip), vehicle: Klucel (hydroxypropylcellulose) (HPC) 100 % of control | endpoint: mean survival time, dose: 200.0 mg/kg/injection, schedule: Q04DX003 (ip), vehicle: Klucel (hydroxypropylcellulose) (HPC) 102 % of control | endpoint: mean survival time, dose: 400.0 mg/kg/injection, schedule: Q04DX003 (ip), vehicle: Klucel (hydroxypropylcellulose) (HPC) 96 % of control

CCC(C)CC(N)O (stereo unspecified)
inactive: endpoint: mean survival time, dose: 75.0 mg/kg/injection, schedule: Q01DX001 (ip), vehicle: saline 103 % of control | endpoint: mean survival time, dose: 150.0 mg/kg/injection, schedule: Q01DX001 (ip), vehicle: saline 97 % of control
